# Measurements published in ChEMBL document CHEMBL1201862, “PubChem BioAssay data set” (2004).
#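 Growth conditions: 96-well plates. Treatment: test compound, 48 hours, 5 concentrations. Analysis: linear interpolation between bracketing concentrations; unreached endpoints set to highest concentration. GI50 marks 50% less growth.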 Active and inactive are the calls of the source. No stated cut-off is given here; in the data, active = GI50 up to about 1.1 µM and inactive = higher.
# Key:
# Assay in all cases: DTP human tumour cell line panel, 48 h
# 786-0 = test system: 786-0
# A549 = test system: A549
# ACHN = test system: ACHN
# BT-549 = test system: BT-549
# CAKI-1 = test system: CAKI-1
# CCRF-CEM = test system: CCRF-CEM
# COLO 205 = test system: COLO 205
# DU-145 = test system: DU-145
# EKVX = test system: EKVX
# HCC 2998 = test system: HCC 2998
# HCT-116 = test system: HCT-116
# HCT-15 = test system: HCT-15
# HL-60 = test system: HL-60
# HOP-62 = test system: HOP-62
# HT-29 = test system: HT-29
# Hs-578T = test system: Hs-578T
# IGROV-1 = test system: IGROV-1
# K562 = test system: K562
# KM12 = test system: KM12
# LOX IMVI = test system: LOX IMVI
# M14 = test system: M14
# MCF7 = test system: MCF7
# MDA-MB-231 = test system: MDA-MB-231
# MDA-MB-435 = test system: MDA-MB-435
# MDA-N = test system: MDA-N
# MOLT-4 = test system: MOLT-4
# Malme-3M = test system: Malme-3M
# NCI-H226 = test system: NCI-H226
# NCI-H23 = test system: NCI-H23
# NCI-H460 = test system: NCI-H460
# NCI-H522 = test system: NCI-H522
# NCI/ADR-RES = test system: NCI/ADR-RES
# OVCAR-3 = test system: OVCAR-3
# OVCAR-4 = test system: OVCAR-4
# OVCAR-5 = test system: OVCAR-5
# OVCAR-8 = test system: OVCAR-8
# PC-3 = test system: PC-3
# RPMI-8226 = test system: RPMI-8226
# RXF 393 = test system: RXF 393
# SF-268 = test system: SF-268
# SF-295 = test system: SF-295
# SF-539 = test system: SF-539
# SK-MEL-28 = test system: SK-MEL-28
# SK-MEL-2 = test system: SK-MEL-2
# SK-OV-3 = test system: SK-OV-3
# SN12C = test system: SN12C
# SNB-19 = test system: SNB-19
# SNB-75 = test system: SNB-75
# SR = test system: SR
# SW-620 = test system: SW-620
# T47D = test system: T47D
# TK-10 = test system: TK-10
# U-251 = test system: U-251
# UACC-257 = test system: UACC-257
# UACC-62 = test system: UACC-62
# UO-31 = test system: UO-31
# HOP-92 = test system: HOP-92
# SK-MEL-5 = test system: SK-MEL-5
# A498 = test system: A498
structure (smiles),measurement,setting,value
CC(OC(=O)C(CC(=O)OC(C)(C)C)NC(=O)OC(C)(C)C)C(=O)OCc1ccccc1 (configuration not stated),GI50,786-0,> 100 µM (inactive)
same,GI50,A549,> 100 µM (inactive)
same,GI50,ACHN,> 100 µM (inactive)
same,GI50,BT-549,> 100 µM (inactive)
same,GI50,CAKI-1,> 100 µM (inactive)
same,GI50,CCRF-CEM,> 100 µM (inactive)
same,GI50,COLO 205,> 100 µM (inactive)
same,GI50,DU-145,> 100 µM (inactive)
same,GI50,EKVX,> 100 µM (inactive)
same,GI50,HCC 2998,> 100 µM (inactive)
same,GI50,HCT-116,> 100 µM (inactive)
same,GI50,HCT-15,> 100 µM
same,GI50,HL-60,> 100 µM (inactive)
same,GI50,HOP-62,> 100 µM (inactive)
same,GI50,HT-29,> 100 µM (inactive)
same,GI50,Hs-578T,> 100 µM (inactive)
same,GI50,IGROV-1,> 100 µM (inactive)
same,GI50,K562,> 100 µM (inactive)
same,GI50,KM12,> 100 µM (inactive)
same,GI50,LOX IMVI,> 100 µM (inactive)
same,GI50,M14,> 100 µM (inactive)
same,GI50,MCF7,> 100 µM (inactive)
same,GI50,MDA-MB-231,> 100 µM (inactive)
same,GI50,MDA-MB-435,> 100 µM (inactive)
same,GI50,MDA-N,> 100 µM (inactive)
same,GI50,MOLT-4,> 100 µM (inactive)
same,GI50,Malme-3M,> 100 µM (inactive)
same,GI50,NCI-H226,> 100 µM (inactive)
same,GI50,NCI-H23,> 100 µM (inactive)
same,GI50,NCI-H460,> 100 µM (inactive)
same,GI50,NCI-H522,> 100 µM (inactive)
same,GI50,NCI/ADR-RES,> 100 µM (inactive)
same,GI50,OVCAR-3,> 100 µM (inactive)
same,GI50,OVCAR-4,> 100 µM (inactive)
same,GI50,OVCAR-5,> 100 µM (inactive)
same,GI50,OVCAR-8,> 100 µM (inactive)
same,GI50,PC-3,> 100 µM (inactive)
same,GI50,RPMI-8226,> 100 µM (inactive)
same,GI50,RXF 393,> 100 µM (inactive)
same,GI50,SF-268,> 100 µM (inactive)
same,GI50,SF-295,> 100 µM (inactive)
same,GI50,SF-539,> 100 µM (inactive)
same,GI50,SK-MEL-28,> 100 µM (inactive)
same,GI50,SK-MEL-2,> 100 µM (inactive)
same,GI50,SK-OV-3,> 100 µM (inactive)
same,GI50,SN12C,> 100 µM (inactive)
same,GI50,SNB-19,> 100 µM (inactive)
same,GI50,SNB-75,> 100 µM (inactive)
same,GI50,SR,> 100 µM (inactive)
same,GI50,SW-620,> 100 µM (inactive)
same,GI50,T47D,> 100 µM (inactive)
same,GI50,TK-10,> 100 µM (inactive)
same,GI50,U-251,> 100 µM (inactive)
same,GI50,UACC-257,> 100 µM (inactive)
same,GI50,UACC-62,> 100 µM (inactive)
same,GI50,UO-31,> 100 µM (inactive)
CCOC(=O)/C=C(/C(=O)OCC)n1ccc(=O)n(Cc2cnnn2CCCCOC(C)=O)c1=O,GI50,786-0,18.5 µM (inactive)
same,GI50,A549,> 100 µM (inactive)
same,GI50,ACHN,51.2 µM (inactive)
same,GI50,BT-549,60.3 µM (inactive)
same,GI50,CAKI-1,30.2 µM (inactive)
same,GI50,CCRF-CEM,2.2 µM (inactive)
same,GI50,COLO 205,19.1 µM (inactive)
same,GI50,DU-145,> 100 µM (inactive)
same,GI50,EKVX,63.8 µM (inactive)
same,GI50,HCC 2998,> 100 µM (inactive)
same,GI50,HCT-116,> 100 µM (inactive)
same,GI50,HCT-15,> 10 µM
same,GI50,HOP-62,> 100 µM (inactive)
same,GI50,HOP-92,0.0305 µM (active)
same,GI50,HT-29,> 100 µM (inactive)
same,GI50,Hs-578T,> 100 µM (inactive)
same,GI50,IGROV-1,> 100 µM (inactive)
same,GI50,K562,70.1 µM (inactive)
same,GI50,KM12,> 100 µM (inactive)
same,GI50,LOX IMVI,> 100 µM (inactive)
same,GI50,MCF7,52 µM (inactive)
same,GI50,MDA-MB-231,> 100 µM (inactive)
same,GI50,MDA-MB-435,> 100 µM (inactive)
same,GI50,MDA-N,> 100 µM (inactive)
same,GI50,MOLT-4,20.4 µM (inactive)
same,GI50,NCI-H226,> 100 µM (inactive)
same,GI50,NCI-H23,> 100 µM (inactive)
same,GI50,NCI-H460,> 100 µM (inactive)
same,GI50,NCI-H522,20.7 µM (inactive)
same,GI50,NCI/ADR-RES,> 100 µM (inactive)
same,GI50,OVCAR-3,> 100 µM (inactive)
same,GI50,OVCAR-4,> 100 µM (inactive)
same,GI50,OVCAR-5,> 100 µM (inactive)
same,GI50,OVCAR-8,> 100 µM (inactive)
same,GI50,PC-3,> 100 µM (inactive)
same,GI50,RPMI-8226,59.2 µM (inactive)
same,GI50,RXF 393,> 100 µM (inactive)
same,GI50,SF-268,> 100 µM (inactive)
same,GI50,SF-295,> 100 µM (inactive)
same,GI50,SF-539,36.6 µM (inactive)
same,GI50,SK-MEL-28,> 100 µM (inactive)
same,GI50,SK-MEL-2,> 100 µM (inactive)
same,GI50,SK-MEL-5,> 100 µM (inactive)
same,GI50,SK-OV-3,> 100 µM (inactive)
same,GI50,SN12C,> 100 µM (inactive)
same,GI50,SNB-19,> 100 µM (inactive)
same,GI50,SNB-75,> 100 µM (inactive)
same,GI50,SR,27.9 µM (inactive)
same,GI50,SW-620,20.1 µM (inactive)
same,GI50,T47D,> 100 µM (inactive)
same,GI50,TK-10,32.8 µM (inactive)
same,GI50,U-251,> 100 µM (inactive)
same,GI50,UACC-257,> 100 µM (inactive)
same,GI50,UACC-62,> 100 µM (inactive)
same,GI50,UO-31,> 100 µM (inactive)
CC1=CC(c2ccccc2)n2c(nc3cc4ccccc4cc32)N1 (configuration not stated),GI50,786-0,> 100 µM (inactive)
same,GI50,A498,> 100 µM (inactive)
same,GI50,A549,> 100 µM (inactive)
same,GI50,ACHN,> 100 µM (inactive)
same,GI50,BT-549,> 100 µM (inactive)
same,GI50,CAKI-1,> 100 µM (inactive)
same,GI50,CCRF-CEM,> 100 µM (inactive)
same,GI50,COLO 205,> 100 µM (inactive)
same,GI50,DU-145,> 100 µM (inactive)
same,GI50,EKVX,> 100 µM (inactive)
same,GI50,HCC 2998,> 100 µM (inactive)
same,GI50,HCT-116,> 100 µM (inactive)
same,GI50,HCT-15,> 100 µM
same,GI50,HL-60,> 100 µM (inactive)
same,GI50,HOP-92,> 100 µM (inactive)
same,GI50,HT-29,> 100 µM (inactive)
same,GI50,Hs-578T,> 100 µM (inactive)
same,GI50,IGROV-1,> 100 µM (inactive)
same,GI50,K562,> 100 µM (inactive)
same,GI50,KM12,> 100 µM (inactive)
same,GI50,LOX IMVI,> 100 µM (inactive)
same,GI50,M14,> 100 µM (inactive)
same,GI50,MCF7,> 100 µM (inactive)
same,GI50,MDA-MB-231,> 100 µM (inactive)
same,GI50,MDA-MB-435,> 100 µM (inactive)
same,GI50,MDA-N,> 100 µM (inactive)
same,GI50,MOLT-4,> 100 µM (inactive)
same,GI50,Malme-3M,> 100 µM (inactive)
same,GI50,NCI-H226,> 100 µM (inactive)
same,GI50,NCI-H23,> 100 µM (inactive)
same,GI50,NCI-H460,> 100 µM (inactive)
same,GI50,NCI/ADR-RES,> 100 µM (inactive)
same,GI50,OVCAR-3,> 100 µM (inactive)
same,GI50,OVCAR-4,> 100 µM (inactive)
same,GI50,OVCAR-5,> 100 µM (inactive)
same,GI50,OVCAR-8,> 100 µM (inactive)
same,GI50,PC-3,> 100 µM (inactive)
same,GI50,RPMI-8226,> 100 µM (inactive)
same,GI50,RXF 393,> 100 µM (inactive)
same,GI50,SF-268,> 100 µM (inactive)
same,GI50,SF-295,> 100 µM (inactive)
same,GI50,SF-539,> 100 µM (inactive)
same,GI50,SK-MEL-28,> 100 µM (inactive)
same,GI50,SK-MEL-2,> 100 µM (inactive)
same,GI50,SK-MEL-5,> 100 µM (inactive)
same,GI50,SK-OV-3,> 100 µM (inactive)
same,GI50,SNB-19,> 100 µM (inactive)
same,GI50,SNB-75,> 100 µM (inactive)
same,GI50,SR,90.4 µM (inactive)
same,GI50,SW-620,> 100 µM (inactive)
same,GI50,T47D,> 100 µM (inactive)
same,GI50,TK-10,> 100 µM (inactive)
same,GI50,U-251,> 100 µM (inactive)
same,GI50,UACC-257,> 100 µM (inactive)
same,GI50,UACC-62,> 100 µM (inactive)
same,GI50,UO-31,> 100 µM (inactive)
